molecular target: FXR (Homo sapiens (Human), UniProt Q96RI1); assay: FXR EC50 (FXR agonist potency reported with each Example); assay type: cell-based
Sequence (Q96RI1 262-486): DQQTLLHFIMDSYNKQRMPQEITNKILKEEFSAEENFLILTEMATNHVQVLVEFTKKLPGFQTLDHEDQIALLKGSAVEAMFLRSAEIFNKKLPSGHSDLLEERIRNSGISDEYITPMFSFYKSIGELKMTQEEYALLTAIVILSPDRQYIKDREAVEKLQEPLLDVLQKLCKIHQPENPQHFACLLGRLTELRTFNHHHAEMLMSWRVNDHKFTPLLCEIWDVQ

Row | SMILES | EC50
1 | Cc1cnc(C23CCC(CN(C(=O)C45CC(F)(C4)C5)c4cccc(-c5nc(C6CC6)no5)c4)(CC2)CC3)o1 [Example 37, N-(3-(3-cyclopropyl-1,2,4-oxadiazol-5-yl)phenyl)-3-fluoro-N-((4-(5-methyloxazol-2-yl)bicyclo[2.2.2]octan-1-yl)methyl)bicyclo[1.1.1]pentane-1-carboxamide] | 82 nM
2 | O=C(N(CC12CCC(c3cc(C(F)(F)F)ccn3)(CC1)CC2)c1cccc(-c2nc(C3CC3)no2)c1)C12CC(F)(C1)C2 [Example 50, N-(3-(3-cyclopropyl-1,2,4-oxadiazol-5-yl)phenyl)-3-fluoro-N-((4-(4-(trifluoromethyl)pyridin-2-yl)bicyclo[2.2.2]octan-1-yl)methyl)bicyclo[1.1.1]pentane-1-carboxamide] | 462 nM
3 | O=C(N(CC12CCC(c3nc(C4CC4)no3)(CC1)CC2)c1cccc(-c2nc(CC3CC3)no2)c1)C12CC(F)(C1)C2 [Example 65, N-((4-(3-cyclopropyl-1,2,4-oxadiazol-5-yl)bicyclo[2.2.2]octan-1-yl)methyl)-N-(3-(3-(cyclopropylmethyl)-1,2,4-oxadiazol-5-yl)phenyl)-3-fluorobicyclo[1.1.1]pentane-1-carboxamide] | 142 nM
4 | CC(C)(C)c1nc(C23CCC(CN(C(=O)C45CC(F)(C4)C5)c4cccc(-c5cnn(S(=O)(=O)C6CC6)c5)c4)(CC2)CC3)no1 [Example 195, N-((4-(5-(tert-butyl)-1,2,4-oxadiazol-3-yl)bicyclo[2.2.2]octan-1-yl)methyl)-N-(3-(1-(cyclopropylsulfonyl)-1H-pyrazol-4-yl)phenyl)-3-fluorobicyclo[1.1.1]pentane-1-carboxamide] | 20 nM
5 | O=C(N(CC12CCC(c3nc(C4CC4)no3)(CC1)CC2)c1cccc(-c2nc(C(F)F)co2)c1)C12CC(F)(C1)C2 [Example 40, N-((4-(3-cyclopropyl-1,2,4-oxadiazol-5-yl)bicyclo[2.2.2]octan-1-yl)methyl)-N-(3-(4-(difluoromethyl)oxazol-2-yl)phenyl)-3-fluorobicyclo[1.1.1]pentane-1-carboxamide] | 243 nM
6 | Cn1nc(C2CC2)cc1C12CCC(CN(C(=O)C34CC(F)(C3)C4)c3cccc(-c4noc(C(C)(C)C)n4)c3)(CC1)CC2 [Example 165, N-(3-(5-(tert-butyl)-1,2,4-oxadiazol-3-yl)phenyl)-N-((4-(3-cyclopropyl-1-methyl-1H-pyrazol-5-yl)bicyclo[2.2.2]octan-1-yl)methyl)-3-fluorobicyclo[1.1.1]pentane-1-carboxamide] | 124 nM
7 | COc1ccc(NC(=O)N(CC23CCC(c4nc(C5CC5)no4)(CC2)CC3)c2cccc(-c3nc(C4CC4)no3)c2)cc1 [Example 96, 1-((4-(3-cyclopropyl-1,2,4-oxadiazol-5-yl)bicyclo[2.2.2]octan-1-yl)methyl)-1-(3-(3-cyclopropyl-1,2,4-oxadiazol-5-yl)phenyl)-3-(4-methoxyphenyl)urea] | 647 nM
8 | O=C(N(CC12CCC(c3nc(C4CC4)no3)(CC1)CC2)c1cccc(-c2noc(C34CC(F)(C3)C4)n2)c1)C12CC(F)(C1)C2 [Example 102, N-((4-(3-cyclopropyl-1,2,4-oxadiazol-5-yl)bicyclo[2.2.2]octan-1-yl)methyl)-3-fluoro-N-(3-(5-(3-fluorobicyclo[1.1.1]pentan-1-yl)-1,2,4-oxadiazol-3-yl)phenyl)bicyclo[1.1.1]pentane-1-carboxamide] | 1040 nM
9 | Cn1nc(C23CCC(CN(C(=O)C45CC(F)(C4)C5)c4cccc(-c5noc(C(C)(C)C)n5)c4)(CC2)CC3)cc1C1CC1 [Example 167, N-(3-(5-(tert-butyl)-1,2,4-oxadiazol-3-yl)phenyl)-N-((4-(5-cyclopropyl-1-methyl-1H-pyrazol-3-yl)bicyclo[2.2.2]octan-1-yl)methyl)-3-fluorobicyclo[1.1.1]pentane-1-carboxamide] | 69 nM
10 | COc1nccc(C23CCC(CN(C(=O)C45CC(F)(C4)C5)c4cccc(-c5nc(C6CC6)no5)c4)(CC2)CC3)n1 [Example 148, N-(3-(3-cyclopropyl-1,2,4-oxadiazol-5-yl)phenyl)-3-fluoro-N-((4-(2-methoxypyrimidin-4-yl)bicyclo[2.2.2]octan-1-yl)methyl)bicyclo[1.1.1]pentane-1-carboxamide] | 687 nM
11 | CC(C)c1nc(C23CCC(CN(C(=O)C45CC(F)(C4)C5)c4cccc(-c5nc(C6CC6)no5)c4)(CC2)CC3)no1 [Example 120, N-(3-(3-cyclopropyl-1,2,4-oxadiazol-5-yl)phenyl)-3-fluoro-N-((4-(5-isopropyl-1,2,4-oxadiazol-3-yl)bicyclo[2.2.2]octan-1-yl)methyl)bicyclo[1.1.1]pentane-1-carboxamide] | 15 nM
12 | CC(C)(C)c1nc(C23CCC(CN(C(=O)C45CC(F)(C4)C5)c4cc(-c5cn[nH]c5)ccn4)(CC2)CC3)no1 [Example 211, N-(4-(1H-pyrazol-4-yl)pyridin-2-yl)-N-((4-(5-(tert-butyl)-1,2,4-oxadiazol-3-yl)bicyclo[2.2.2]octan-1-yl)methyl)-3-fluorobicyclo[1.1.1]pentane-1-carboxamide] | 17 nM
13 | CC(C)(C)c1nc(C23CCC(CN(C(=O)C45CC(F)(C4)C5)c4cncc(-c5nc(C6CC6)no5)c4)(CC2)CC3)no1 [Example 206, N-((4-(5-(tert-butyl)-1,2,4-oxadiazol-3-yl)bicyclo[2.2.2]octan-1-yl)methyl)-N-(5-(3-cyclopropyl-1,2,4-oxadiazol-5-yl)pyridin-3-yl)-3-fluorobicyclo[1.1.1]pentane-1-carboxamide] | 49 nM
14 | Cn1nc(C2CC2)cc1C12CCC(CN(C(=O)C3CC(F)(F)C3)c3cccc(-c4nc(C5CC5)no4)c3)(CC1)CC2 [Example 127, N-(3-(3-cyclopropyl-1,2,4-oxadiazol-5-yl)phenyl)-N-((4-(3-cyclopropyl-1-methyl-1H-pyrazol-5-yl)bicyclo[2.2.2]octan-1-yl)methyl)-3,3-difluorocyclobutane-1-carboxamide] | 374 nM
15 | CC(C)(C)c1nc(C23CCC(CN(C(=O)C45CC(F)(C4)C5)c4cc(-c5cnn(C(F)F)c5)ccn4)(CC2)CC3)no1 [Example 212, N-((4-(5-(tert-butyl)-1,2,4-oxadiazol-3-yl)bicyclo[2.2.2]octan-1-yl)methyl)-N-(4-(1-(difluoromethyl)-1H-pyrazol-4-yl)pyridin-2-yl)-3-fluorobicyclo[1.1.1]pentane-1-carboxamide] | 11 nM
16 | COc1ccc(C23CCC(CN(C(=O)C4CC(F)(F)C4)c4cccc(-c5nc(C6CC6)no5)c4)(CC2)CO3)cc1 [Example 129, N-(3-(3-Cyclopropyl-1,2,4-oxadiazol-5-yl)phenyl)-3,3-difluoro-N-((1-(4-methoxyphenyl)-2-oxabicyclo[2.2.2]octan-4-yl)methyl)cyclobutane-1-carboxamide] | 1140 nM
17 | O=C(N(CC12CCC(c3nc(C4CC4)no3)(CC1)CC2)c1cccc(-c2nc(CCl)co2)c1)C12CC(F)(C1)C2 [Example 14, N-(3-(4-(chloromethyl)oxazol-2-yl)phenyl)-N-((4-(3-cyclopropyl-1,2,4-oxadiazol-5-yl)bicyclo[2.2.2]octan-1-yl)methyl)-3-fluorobicyclo[1.1.1]pentane-1-carboxamide] | 166 nM
18 | O=C(N(CC12CCC(c3nc(C4CC4)no3)(CC1)CC2)c1cccc(-c2noc(C(F)(F)F)n2)c1)C12CC(F)(C1)C2 [Example 108, N-((4-(3-cyclopropyl-1,2,4-oxadiazol-5-yl)bicyclo[2.2.2]octan-1-yl)methyl)-3-fluoro-N-(3-(5-(trifluoromethyl)-1,2,4-oxadiazol-3-yl)phenyl)bicyclo[1.1.1]pentane-1-carboxamide] | 144 nM
19 | CC1(c2nc(C34CCC(CN(C(=O)C56CC(F)(C5)C6)c5cccc(-c6nc(C7CC7)no6)c5)(CC3)CC4)no2)COC1 [Example 122, N-(3-(3-cyclopropyl-1,2,4-oxadiazol-5-yl)phenyl)-3-fluoro-N-((4-(5-(3-methyloxetan-3-yl)-1,2,4-oxadiazol-3-yl)bicyclo[2.2.2]octan-1-yl)methyl)bicyclo[1.1.1]pentane-1-carboxamide] | 28 nM
20 | CC(C)(O)c1coc(-c2cccc(N(CC34CCC(c5nc(C6CC6)no5)(CC3)CC4)C(=O)C3CC(F)(F)C3)c2)n1 [Example 16, N-((4-(3-cyclopropyl-1,2,4-oxadiazol-5-yl)bicyclo[2.2.2]octan-1-yl)methyl)-3,3-difluoro-N-(3-(4-(2-hydroxypropan-2-yl)oxazol-2-yl)phenyl)cyclobutane-1-carboxamide] | 318 nM
21 | O=C(N(CC12CCC(c3noc(C(F)F)n3)(CC1)CC2)c1cccc(-c2nnc(C3CC3)o2)c1)C12CC(F)(C1)C2 [Example 156, N-(3-(5-cyclopropyl-1,3,4-oxadiazol-2-yl)phenyl)-N-((4-(5-(difluoromethyl)-1,2,4-oxadiazol-3-yl)bicyclo[2.2.2]octan-1-yl)methyl)-3-fluorobicyclo[1.1.1]pentane-1-carboxamide] | 103 nM
22 | CC(C)(C)c1nc(-c2cccc(N(CC34CCC(c5noc(C(C)(C)C)n5)(CC3)CC4)C(=O)C34CC(F)(C3)C4)c2)no1 [Example 183, N-((4-(5-(tert-butyl)-1,2,4-oxadiazol-3-yl)bicyclo[2.2.2]octan-1-yl)methyl)-N-(3-(5-(tert-butyl)-1,2,4-oxadiazol-3-yl)phenyl)-3-fluorobicyclo[1.1.1]pentane-1-carboxamide] | 18 nM
23 | Cc1cnc(C23CCC(CN(C(=O)C4CCC(F)(F)C4)c4cccc(-c5nc(C6CC6)no5)c4)(CC2)CC3)o1 (stereo not drawn) [Example 39, N-(3-(3-cyclopropyl-1,2,4-oxadiazol-5-yl)phenyl)-3,3-difluoro-N-((4-(5-methyloxazol-2-yl)bicyclo[2.2.2]octan-1-yl)methyl)cyclopentane-1-carboxamide] | 308 nM
24 | O=C(C1CC(C(F)F)C1)N(CC12CCC(c3nc(C4CC4)no3)(CC1)OC2)c1cccc(-c2cc(C3CC3)on2)c1 (stereo not drawn) [Example 201, N-((1-(3-cyclopropyl-1,2,4-oxadiazol-5-yl)-2-oxabicyclo[2.2.2]octan-4-yl)methyl)-N-(3-(5-cyclopropylisoxazol-3-yl)phenyl)-3-(difluoromethyl)cyclobutane-1-carboxamide] | 384 nM

From US11254663B2 (BRISTOL-MYERS SQUIBB COMPANY, priority 2019, dated 2022)
